Measured values: patent US8399462B2, “JNK modulators” (Roche Palo Alto LLC, priority 2006, dated 2013)
Where two headings read alike, the source gives them in different places.

What was measured:
c-jun = c-jun of Table 2 (method not described); assay type: cell-based
Human JNK1α1 = Human JNK1α1 (Homo sapiens, UniProt P45983); assay: JNK assay in vitro (phosphorylation of GST-ATF2 with [γ-33P]ATP), JNK1; assay type: biochemical
Description: (§1) JNK activity was measured by phosphorylation of GST-ATF2 (19-96) with [γ-^33P] ATP. […] Human JNK2α2 assay contains 1 nM enzyme, 1 μM ATF2, 8 μM ATP with 1 μCi [γ-^33P] ATP. Human JNK1α1 assay contains 2 nM enzyme, 1 μM ATF2, 6 μM ATP with 1 μCi [γ-^33P] ATP. Human JNK3 (Upstate Biotech #14-501M) assay contains 2 nM enzyme, 1 μM ATF2, 4 μM ATP with 1 μCi [γ-33P] ATP. The enzyme assay was carried out in the presence or absence of several compound concentrations. JNK and compound were pre-incubated for 10 min., followed by initiation of the enzymatic reaction by adding ATP and the substrate. The reaction mixture was incubated at 30° C. for 30 min. At the end of incubation, the reaction was terminated by transferring 25 μl of the reaction mixture to 150 μl of 10% glutathione Sepharose® slurry (Amersham # 27-4574-01) containing 135 mM EDTA. The reaction product was captured on the affinity resin, and washed on a filtration plate (Millipore, MABVNOB50) with phosphate buffered saline for six times to remove free radionucleotide. The incorporation of ^33P into ATF2 was quantified on a microplate scintillation counter (Packard Topcount). Compound inhibition potency on JNK was measured by IC50 value generated from ten concentration inhibition curves fitted into the 3-parameter model: % inhibition=Maximum/(I+(IC50/[Inhibitor])^slope). Data were analyzed on Microsoft Excel for parameter estimation.

Human JNK2α2 = Human JNK2α2 (Homo sapiens, UniProt P45984); assay: JNK assay in vitro (phosphorylation of GST-ATF2 with [γ-33P]ATP), JNK2; assay type: biochemical
Human JNK2α2, sequence (P45984 whole entry): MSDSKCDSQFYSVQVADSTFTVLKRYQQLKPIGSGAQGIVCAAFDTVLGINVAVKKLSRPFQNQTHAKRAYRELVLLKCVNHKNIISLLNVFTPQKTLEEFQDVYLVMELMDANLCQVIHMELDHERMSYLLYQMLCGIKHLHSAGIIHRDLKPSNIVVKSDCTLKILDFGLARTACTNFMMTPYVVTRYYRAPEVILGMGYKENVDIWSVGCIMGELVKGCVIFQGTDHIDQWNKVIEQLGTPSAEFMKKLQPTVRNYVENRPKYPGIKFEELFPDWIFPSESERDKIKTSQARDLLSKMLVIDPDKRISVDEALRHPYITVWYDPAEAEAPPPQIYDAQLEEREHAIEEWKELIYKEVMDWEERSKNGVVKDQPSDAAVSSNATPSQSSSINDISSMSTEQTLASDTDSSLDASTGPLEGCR
Description: as §1

[1] = test system: TNFα-induced IL-6 production; assay: Rat in vivo TNFα-induced IL-6 production assay; conditions: 1.5 h, oral gavage, 30 min before TNF-α i.p., blood 90 min after challenge
Description: Female Wistar-Han rats procured from Charles River Laboratories were allowed to acclimate for one week prior to use and achieve an approximate body weight of 95-130 g. Rats were administered test compound via oral gavage 30 min prior to an intraperitoneal challenge of 0.5 μg recombinant rat TNF-α (Biosource). Blood was collected via cardiocentesis 90 min after TNF-α challenge. Plasma was prepared using lithium heparin separation tubes (BD microtainer) and frozen at −80° C. until analyzed. IL-6 levels were determined using a rat specific IL-6 ELISA kit (Biosource).

[2] = test system: inflammatory cell infiltration into BAL; assay: Ovalbumin-sensitized asthma model (inflammatory cell infiltration into BAL); assay type: in vivo, rat; conditions: 30 mg/kg
[3] = test system: inflammatory cell infiltration into BAL; assay: as above; assay type: in vivo, rat
Description: (A) Male Brown-Norway rats are sensitized i.p. with 100 μg of OA (ovalbumin) in 0.2 ml alum once every week for three weeks (day 0, 7, and 14). The week following the last sensitization, the rats are ready for testing. One to 2 days prior to challenge, animals are weighed. On day 21, the rats are dosed q.d. with either vehicle or compound formulation subcutaneously 30 minutes before OA aerosol challenge (1% OA for 45 minutes) and terminated 4 or 24 hours after challenge. At time of sacrifice, rats are anesthetized (urethane, approx. 2 g/kg, i.p.). Plasma is collected from rats for PK at termination. Blood is drawn from the abdominal aorta at termination. A tracheal cannula is inserted and the lungs are lavaged with 3×3 ml PBS. The BAL fluid is analyzed for total leukocyte number and differential leukocyte counts. Total leukocyte number in an aliquot of the cells (20-100 μl) is determined using a Coulter Counter. For differential leukocyte counts, 50-200 μl of the sample is centrifuged in a Cytospin and the slide stained with Diff-Quik. The proportions of monocytes, eosinophils, neutrophils and lymphocytes are counted under light microscopy using standard morphological criteria and expressed as a percentage. The remaining BAL fluid is centrifuged (1500 rpm, 10 min) and the supernatant is stored at −80° C. Lungs are also harvested for protein and/or RNA analyses.

Human JNK1α1, sequence (P45983 1-384 isoform P45983-2): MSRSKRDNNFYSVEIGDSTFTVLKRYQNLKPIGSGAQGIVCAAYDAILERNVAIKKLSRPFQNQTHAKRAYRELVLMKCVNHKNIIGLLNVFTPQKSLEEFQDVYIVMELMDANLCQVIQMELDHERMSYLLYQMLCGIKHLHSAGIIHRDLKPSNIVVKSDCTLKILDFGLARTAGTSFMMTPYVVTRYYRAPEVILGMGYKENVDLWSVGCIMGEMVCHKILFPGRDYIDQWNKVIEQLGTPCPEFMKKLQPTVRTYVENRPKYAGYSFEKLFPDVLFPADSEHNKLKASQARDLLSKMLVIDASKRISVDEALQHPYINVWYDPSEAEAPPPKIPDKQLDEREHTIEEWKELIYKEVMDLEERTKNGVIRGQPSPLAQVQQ

CCC(CO)NC(=O)[C@H]1CC[C@H](Nc2nccc(-n3ncc4ccccc43)n2)CC1 (some centres unmarked) [Compound 15]
IC50 (c-jun): 1290 nM | IC50 (Human JNK1α1): 67.8 nM | IC50 (Human JNK2α2): 458 nM

O=C(NCC(O)CO)[C@H]1CC[C@H](Nc2nccc(-n3ncc4ccccc43)n2)CC1 (some centres unmarked) [Compound 16]
IC50 (c-jun): 4130 nM | IC50 (Human JNK1α1): 70.8 nM | inhibition in vivo at 30 mg/kg [1]: 47.4% | IC50 (Human JNK2α2): 592 nM

CC(C)(O)c1cccc2c1ccn2-c1ccnc(N[C@H]2CC[C@H](O)CC2)n1 [Compound 18, 4-[4-(4-(2-hydroxyprop-2-yl)-indol-1-yl)-pyrimidin-2-ylamino]-cyclohexanol]
IC50 (c-jun): 1950 nM | IC50 (Human JNK1α1): 73.5 nM | IC50 (Human JNK2α2): 337 nM

O=C(NC(CO)CO)[C@H]1CC[C@H](Nc2nccc(-n3ncc4ccccc43)n2)CC1 [Compound 26, 4-(4-indazol-1-yl-pyrimidin-2-ylamino)-cyclohexane carboxylic acid 1,3-dihydroxyprop-2-ylamide]
IC50 (c-jun): 1890 nM | IC50 (Human JNK1α1): 85 nM | inhibition in vivo at 30 mg/kg [1]: 59.6% | IC50 (Human JNK2α2): 695 nM

COc1cccc2c1cnn2-c1ccnc(N[C@H]2CC[C@H](O)CC2)n1 [Compound 86, 4-[4-(4-methoxyindazol-1-yl)-pyrimidin-2-yl-amino]-cyclohexanol]
IC50 (Human JNK1α1; Km concentrations of ATP and substrate, 6 μM ATP, 1 μM ATF2): 22.8 nM | IC50 (Human JNK2α2; Km concentrations of ATP and substrate, 8 μM ATP, 1 μM ATF2): 178 nM

N#CCOc1cccc2c1cnn2-c1ccnc(N[C@H]2CC[C@H](O)CC2)n1 [Compound 87, (1-[2-(4-hydroxycyclo-hexylamino)-pyrimidin-4-yl]-1H-indazol-4-yl-oxy)acetonitrile]
IC50 (c-jun): 1710 nM | IC50 (Human JNK1α1): 29.7 nM | inhibition in vivo at 10 mg/kg [1]: 64% | IC50 (Human JNK2α2): 191 nM

CC(C)C(=O)Nc1cccc2c1ccn2-c1ccnc(N[C@H]2CC[C@H](O)CC2)n1 [Compound 88, N-(1-[2-(4-hydroxy-cyclohexylamino)-pyrimidin-4-yl]-1H-indol-4-yl)-isobutyr-amide]
melting point: 211.8 to 212.6 °C | IC50 (Human JNK1α1): 70.9 nM | IC50 (Human JNK2α2): 480 nM

CC(C)(O)[C@H]1CC[C@H](Nc2nccc(-n3ncc4c(OCCCS(C)(=O)=O)cccc43)n2)CC1 [Compound 157, 2-(4-{4-[4-(3-methane-sulfonyl-propoxy)-indazol-1-yl]-pyrimidin-2-ylamino}-cyclohexyl)-propan-2-ol]
Eosinophils % inhibition [2]: 22.6% | Eosinophils count in BAL [2]: 0.24 ± 0.05 × 10^5 per mL | Neutrophils % inhibition [2]: 70.6% | Neutrophils count in BAL [2]: 0.47 ± 0.12 × 10^5 per mL | Total cells count in BAL [2]: 2.46 ± 0.18 × 10^5 per mL | Eosinophils % inhibition ([3]; 10 mg/kg): 6.5% | Eosinophils count in BAL ([3]; 10 mg/kg): 0.29 ± 0.09 × 10^5 per mL | Neutrophils % inhibition ([3]; 10 mg/kg): 41.3% | Neutrophils count in BAL ([3]; 10 mg/kg): 0.94 ± 0.10 × 10^5 per mL | Total cells % inhibition ([3]; 10 mg/kg): 3.3% | Total cells count in BAL ([3]; 10 mg/kg): 2.67 ± 0.13 × 10^5 per mL | Total cells % inhibition ([3]; 30 mg/kg): 10.9% | inhibition in vivo at 10 mg/kg [1]: 52.5%

CS(=O)(=O)CCCOc1cccc2c1cnn2-c1ccnc(N[C@H]2CC[C@H](NC(=O)CN3CCOCC3)CC2)n1 [Compound 159, N-(4-{4-[4-(3-methane-sulfonyl-propoxy)-indazol-1-yl]-pyrimidin-2-ylamino}-cyclohexyl)-2-morpholin-4-yl-acetamide]
melting point: 219.2 to 221.1 °C | inhibition in vivo at 10 mg/kg [1]: 57.6%

CC(C)(O)[C@H]1CC[C@H](Nc2nccc(-n3ccc4c(OCCCS(C)(=O)=O)cccc43)n2)CC1 [Compound 166, 2-(4-{4-[4-(3-methanesulfonyl-propoxy)-indol-1-yl]-pyrimidin-2-ylamino}-cyclohexyl)-propan-2-ol]
inhibition in vivo at 10 mg/kg [1]: 48.5% | inhibition in vivo at 20 mg/kg [1]: 75.2%

CS(=O)(=O)CCCOc1cccc2c1ccn2-c1ccnc(N[C@H]2CC[C@H](C(=O)N3CC[C@H](O)C3)CC2)n1 [Compound 224, (3-hydroxy-pyrrolidin-1-yl)-(4-{4-[4-(3-methane-sulfonyl-propoxy)-indol-1-yl]-pyrimidin-2-ylamino}-cyclohexyl)-methanone]
inhibition in vivo at 20 mg/kg [1]: 68.6%

CS(=O)(=O)CCCOc1cccc2c1ccn2-c1ccnc(N[C@H]2CC[C@H](C(=O)N3CC[C@@H](O)C3)CC2)n1 [Compound 225, (3-hydroxy-pyrrolidin-1-yl)-(4-{4-[4-(3-methane-sulfonyl-propoxy)-indol-1-yl]-pyrimidin-2-ylamino}-cyclohexyl)-methanone]
inhibition in vivo at 20 mg/kg [1]: 50.9%

CS(=O)(=O)CCCOc1cccc2c1ccn2-c1ccnc(N[C@H]2CC[C@H](C(=O)N3CCC(N)CC3)CC2)n1.Cl [Compound 233, (4-amino-piperidin-1-yl)-(4-{4-[4-(3-methane-sulfonyl-propoxy)-indol-1-yl]-pyrimidin-2-ylamino}-cyclohexyl)-methanone]
melting point: 247 to 248 °C | inhibition in vivo at 20 mg/kg [1]: 57.8%

C[C@@H]1C[C@H]2[C@@H]3CCC4=CC(=O)C=C[C@]4(C)[C@@]3(F)[C@@H](O)C[C@]2(C)[C@@]1(O)C(=O)CO [Dexamethasone, dexamethasone, reference compound]
Eosinophils % inhibition ([3]; 10 mg/kg): 41.9% | Eosinophils count in BAL ([3]; 10 mg/kg): 0.18 ± 0.11 × 10^5 per mL | Neutrophils % inhibition ([3]; 10 mg/kg): 97.5% | Neutrophils count in BAL ([3]; 10 mg/kg): 0.04 ± 0.01 × 10^5 per mL | Total cells % inhibition ([3]; 10 mg/kg): 23.2%

CS(=O)(=O)N[C@H]1CC[C@H](Nc2nccc(-n3ncc4ccccc43)n2)CC1 [Example 12, trans-N-[4-(4-Indazol-1-ylpyrimidin-2-ylamino)-cyclohexyl]-methanesulfonamide]
melting point: 269.6 to 270.4 °C

CC1(O)CCC(Nc2nccc(-n3ncc4ccccc43)n2)CC1 (centres unmarked) [Example 13, 4-(4-Indazol-1-ylpyrimidin-2-ylamino)-1-methylcyclohexanol]
melting point: 168.1 to 170.1 °C

O=S(=O)(Cc1ccccc1)c1cccc2c1ccn2-c1ccnc(N[C@H]2CC[C@H](O)CC2)n1 [Example 14, trans-4-[4-(4-Phenylmethanesulfonylindol-1-yl)-pyrimidin-2-yl-amino]-cyclohexanol]
melting point: 132.1 to 134.5 °C

O=c1[nH]n(-c2ccnc(N[C@H]3CC[C@H](O)CC3)n2)c2ccccc12 [Example 16, trans-1-[2-(4-hydroxycyclohexylamino)-pyrimidin-4-yl]-1,2-dihydroindazol-3-one]
melting point: 263.5 to 264.4 °C

Cn1cc(-c2ccnc(N[C@H]3CC[C@H](O)CC3)n2)c2ccccc21 [Example 17, trans-4-[4-(1-Methyl-1H-indol-3-yl)-pyrimidin-2-ylamino]-cyclohexanol]
melting point: 194.5 to 195.3 °C

CC(=O)Nc1ccc2cnn(-c3ccnc(N[C@H]4CC[C@H](O)CC4)n3)c2c1 [Example 19, trans-N-{1-[2-(4-Hydroxycyclohexylamino)-pyrimidin-4-yl]-1H-indazol-6-yl}-acetamide]
melting point: 288 to 289.5 °C

OCc1ccc2cnn(-c3ccnc(N[C@H]4CC[C@H](O)CC4)n3)c2c1 [Example 20, trans-4-[4-(6-Hydroxymethylindazol-1-yl)-pyrimidin-2-ylamino]-cyclohexanol]
melting point: 216 to 217.7 °C
